Test results reported in patent publication US8546443B2, “Benzylic oxindole pyrimidines” (Boehringer Ingelheim International GmbH, priority 2010, dated 2013).

Target: T1, cytoplasmic kinase domain of human IGF-1R (IGF-1R-GST) (Homo sapiens, UniProt P08069)
T1 construct: cytoplasmic kinase domain of human IGF-1R (amino acids 964-1370); GST (glutathione-S-transferase); made in house; host or cells: High Five insect cells (Invitrogen)
Assay: Insulin-like growth factor-1 receptor (IGF-1R) kinase assay (DELFIA)
Assay type: biochemical
Conditions: IGF-1R-GST kinase activity, read-out: IGF1R IC50
Method: Insulin-Like Growth Factor-1 Receptor (IGF-1R)-Kinase Assay
The kinase activity is measured by DELFIA® assay (dissociation-enhanced lanthanide fluorescence immunoassay, Perkin Elmer). […] Enzyme activity is measured in the presence of substances and a control substance. Poly-glutamate-tyrosine peptide (pEY, Sigma Aldrich) and biotinylated pEY (bio-pEY) are used as reaction substrates.
After 40 min at RT the reactions are stopped with 50 μL of stop solution (250 mM EDTA, 20 mM HEPES pH 7.4). 90 μL from each reaction are transferred onto streptavidin-coated 96-well plates. After 120 min incubation at RT the plates are washed three times with 200 μL phosphate-buffered saline (PBS) per well. The plates are incubated for 60 min with 100 μL of europium-coupled antibody against phospho-tyrosine (diluted 1/2000 in Perkin Elmer DELFIA assay buffer) per well. The plates are washed three times with 200 μL per well of DELFIA washing buffer. 100 μL DELFIA Enhancement Solution (Perkin Elmer) is added to each well, and the plates are incubated for 10 min. The fluorescence signal is measured with a Wallac Victor TRF Reader. IC50 values for the inhibition of the IGF-1R-kinase activity are calculated using the programmes Fifty (Version 2) and GraphPad (Version 3.0).

T1 sequence (P08069 964-1367 limits assumed): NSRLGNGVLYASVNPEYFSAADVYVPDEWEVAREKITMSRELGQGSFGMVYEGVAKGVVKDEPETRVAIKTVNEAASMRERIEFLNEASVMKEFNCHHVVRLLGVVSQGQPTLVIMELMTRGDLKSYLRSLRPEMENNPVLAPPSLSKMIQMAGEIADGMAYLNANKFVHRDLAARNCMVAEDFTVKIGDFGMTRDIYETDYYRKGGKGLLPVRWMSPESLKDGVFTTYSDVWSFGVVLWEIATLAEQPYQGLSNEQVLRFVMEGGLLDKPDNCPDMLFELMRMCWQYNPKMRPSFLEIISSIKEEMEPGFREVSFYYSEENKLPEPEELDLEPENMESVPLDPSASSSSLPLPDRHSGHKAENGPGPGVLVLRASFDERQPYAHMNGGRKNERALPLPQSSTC

Row | SMILES | IC50 [nM]
1 | CCN1CCN(c2ccc(Nc3ncc(C(F)(F)F)c(NCc4cccc5c4C(C)(C)C(=O)N5)n3)c(OC)c2)C[C@H]1C [Example I-107] | 0.62
2 | COc1cc(N2CCN(C)[C@H](C)C2)ccc1Nc1ncc(C(F)(F)F)c(NCc2cccc3c2C(C)(C)C(=O)N3)n1 [Example I-108] | 0.93
3 | COc1cc(N2CCN(C3CCC3)[C@H](C)C2)ccc1Nc1ncc(C(F)(F)F)c(NCc2cccc3c2C(C)(C)C(=O)N3)n1 [Example I-109] | 0.87
4 | COc1cc(N2CCN(C3CCN(C(C)=O)CC3)CC2)ccc1Nc1ncc(C(F)(F)F)c(NCc2cccc3c2CC(=O)N3)n1 [Example I-110] | 8
5 | COc1cc(N2CCN(C3CCN(C(C)C)CC3)CC2)ccc1Nc1ncc(C(F)(F)F)c(NCc2cccc3c2CC(=O)N3)n1 [Example I-111] | 18
6 | COc1cc(N2CCN(C3CCN(C4CC4)CC3)CC2)ccc1Nc1ncc(C(F)(F)F)c(NCc2cccc3c2CC(=O)N3)n1 [Example I-112] | 5
7 | COc1cc(N2CCN(C3CCN(CC#N)CC3)CC2)ccc1Nc1ncc(C(F)(F)F)c(NCc2cccc3c2CC(=O)N3)n1 [Example I-113] | 3
8 | CCN1CCC(N2CCN(c3ccc(Nc4ncc(C(F)(F)F)c(NCc5cccc6c5CC(=O)N6)n4)c(OC)c3)CC2)CC1 [Example I-114] | 4
9 | COc1cc(N2CCN(C3CCN(C4CCOCC4)CC3)CC2)ccc1Nc1ncc(C(F)(F)F)c(NCc2cccc3c2CC(=O)N3)n1 [Example I-115] | 10
10 | COc1cc(N2CCN(C(C)C)CC2)ccc1Nc1ncc(C(F)(F)F)c(NCc2cccc3c2CC(=O)N3)n1 [Example I-116] | 10
11 | COc1cc(N2CCN(C3CCN(C)CC3)CC2)ccc1Nc1ncc(C(F)(F)F)c(NCc2cccc3c2CC(=O)N3)n1 [Example I-117] | 9
12 | COc1cc(N2CCN(C3CCOCC3)CC2)ccc1Nc1ncc(C(F)(F)F)c(NCc2cccc3c2CC(=O)N3)n1 [Example I-118] | 11
13 | COc1cc(N2CCN(C)CC2)ccc1Nc1ncc(C(F)(F)F)c(NCc2cccc3c2CC(=O)N3)n1 [Example I-119] | 11
14 | COc1cc(N2CCN(Cc3ccncc3)CC2)ccc1Nc1ncc(C(F)(F)F)c(NCc2cccc3c2CC(=O)N3)n1 [Example I-120] | 49
15 | COc1cc(N2CCN(C3CCN(CCO)CC3)CC2)ccc1Nc1ncc(C(F)(F)F)c(NCc2cccc3c2CC(=O)N3)n1 [Example I-121] | 16
16 | COCCN1CCC(N2CCN(c3ccc(Nc4ncc(C(F)(F)F)c(NCc5cccc6c5CC(=O)N6)n4)c(OC)c3)CC2)CC1 [Example I-122] | 15
17 | COc1cc(N2CCN(C3CCN(C(=O)N(C)C)CC3)CC2)ccc1Nc1ncc(C(F)(F)F)c(NCc2cccc3c2CC(=O)N3)n1 [Example I-123] | 12
18 | COc1cc(N2CCN(C3CCN(S(=O)(=O)N(C)C)CC3)CC2)ccc1Nc1ncc(C(F)(F)F)c(NCc2cccc3c2CC(=O)N3)n1 [Example I-124] | 12
19 | COc1cc(N2CCN(C3CCN(S(C)(=O)=O)CC3)CC2)ccc1Nc1ncc(C(F)(F)F)c(NCc2cccc3c2CC(=O)N3)n1 [Example I-125] | 15
20 | COc1cc(N2CCN(C3CCOCC3)CC2)ccc1Nc1ncc(C(F)(F)F)c(NCc2cccc3c2C(C)(C)C(=O)N3C)n1 [Example I-126] | 3
21 | COc1cc(N2CCN(C)CC2)ccc1Nc1ncc(C(F)(F)F)c(NCc2cccc3c2C(C)(C)C(=O)N3C)n1 [Example I-127] | 3
22 | COc1cc(N2CCN(C(C)C)CC2)ccc1Nc1ncc(C(F)(F)F)c(NCc2cccc3c2C(C)(C)C(=O)N3C)n1 [Example I-128] | 2
23 | CCN1CCN(c2ccc(Nc3ncc(C(F)(F)F)c(NCc4cccc5c4C(C)(C)C(=O)N5C)n3)c(OC)c2)CC1 [Example I-129] | 2
24 | COc1cc(N2CCN(C3CCN(C)CC3)CC2)ccc1Nc1ncc(C(F)(F)F)c(NCc2cccc3c2C(C)(C)C(=O)N3C)n1 [Example I-130] | 2
25 | COc1cc(N2CCN(CC3CC3)[C@H](C)C2)ccc1Nc1ncc(C(F)(F)F)c(NCc2cccc3c2C(C)(C)C(=O)N3)n1 [Example I-131] | 0.33

Results, then the molecule that gave them:

Row | IC50 [nM] | SMILES
26 | 0.6 | COc1cc(N2CCN(C3CCN(C)CC3)[C@H](C)C2)ccc1Nc1ncc(C(F)(F)F)c(NCc2cccc3c2C(C)(C)C(=O)N3)n1 [Example I-132]
27 | 13 | CN1CCN(c2ccc(Nc3ncc(C(F)(F)F)c(NCc4cccc5c4C(C)(C)C(=O)N5)n3)cn2)CC1 [Example I-133]
28 | 1 | CC(C)N1CCC(c2ccc(Nc3ncc(C(F)(F)F)c(NCc4cccc5c4C(C)(C)C(=O)N5)n3)cc2)CC1 [Example I-134]
29 | 0.57 | COc1cc(N2CCN(C3CCN(C)CC3)CC2)ccc1Nc1ncc(C(F)(F)F)c(NCc2cccc3c2C(C)(C)C(=O)N3)n1 [Example I-135]
30 | 2 | COc1cc(N2CCN(C(C)C)CC2)ccc1Nc1ncc(C(F)(F)F)c(NCc2cccc3c2C(C)(C)C(=O)N3)n1 [Example I-136]
31 | 65 | CCc1cc(Nc2ncc(C(F)(F)F)c(NCc3cccc4c3CC(=O)N4)n2)c(OC)cc1N1CCN(C(C)C)CC1 [Example I-137]
32 | 13 | CCOc1cc(N2CCN(C)CC2)ccc1Nc1ncc(C(F)(F)F)c(NCc2cccc3c2CC(=O)N3)n1 [Example I-138]
33 | 8 | CCOc1cc(N2CCN(C(C)C)CC2)ccc1Nc1ncc(C(F)(F)F)c(NCc2cccc3c2CC(=O)N3)n1 [Example I-139]
34 | 11 | CCOc1cc(N2CCN(CC)CC2)ccc1Nc1ncc(C(F)(F)F)c(NCc2cccc3c2CC(=O)N3)n1 [Example I-140]
35 | 19 | CCOc1cc(N2CCN(C3COC3)CC2)ccc1Nc1ncc(C(F)(F)F)c(NCc2cccc3c2CC(=O)N3)n1 [Example I-141]
36 | 0.55 | CCOc1cc(N2CCN(C)CC2)ccc1Nc1ncc(C(F)(F)F)c(NCc2cccc3c2C(C)(C)C(=O)N3)n1 [Example I-142]
37 | 1 | CCOc1cc(N2CCN(C(C)C)CC2)ccc1Nc1ncc(C(F)(F)F)c(NCc2cccc3c2C(C)(C)C(=O)N3)n1 [Example I-143]
38 | 0.81 | CCOc1cc(N2CCN(CC)CC2)ccc1Nc1ncc(C(F)(F)F)c(NCc2cccc3c2C(C)(C)C(=O)N3)n1 [Example I-144]
39 | 0.67 | CCOc1cc(N2CCN(C3CCN(C)CC3)CC2)ccc1Nc1ncc(C(F)(F)F)c(NCc2cccc3c2C(C)(C)C(=O)N3)n1 [Example I-145]
40 | 4 | CCOc1cc(N2CCN(C3COC3)CC2)ccc1Nc1ncc(C(F)(F)F)c(NCc2cccc3c2C(C)(C)C(=O)N3)n1 [Example I-146]
41 | 5 | COc1cc(N2CC3CC2CN3C2CCN(C)CC2)ccc1Nc1ncc(C(F)(F)F)c(NCc2cccc3c2C(C)(C)C(=O)N3)n1 (stereo not drawn) [Example I-147]

Row | IC50 [nM] | SMILES
42 | 3 | COc1cc(N2CC3CC2CN3C2CCC2)ccc1Nc1ncc(C(F)(F)F)c(NCc2cccc3c2C(C)(C)C(=O)N3)n1 (stereo not drawn) [Example I-148]
43 | 2 | COc1cc(N2CC3CC2CN3CC2CC2)ccc1Nc1ncc(C(F)(F)F)c(NCc2cccc3c2C(C)(C)C(=O)N3)n1 (stereo not drawn) [Example I-149]
44 | 3 | COc1cc(N2CC3CC2CN3C2CCOCC2)ccc1Nc1ncc(C(F)(F)F)c(NCc2cccc3c2C(C)(C)C(=O)N3)n1 (stereo not drawn) [Example I-150]
45 | 2 | COc1cc(N2CC3CC2CN3C)ccc1Nc1ncc(C(F)(F)F)c(NCc2cccc3c2C(C)(C)C(=O)N3)n1 (stereo not drawn) [Example I-151]
46 | 3 | COc1cc(N2CC3CC2CN3C(C)C)ccc1Nc1ncc(C(F)(F)F)c(NCc2cccc3c2C(C)(C)C(=O)N3)n1 (stereo not drawn) [Example I-152]
47 | 2 | CCN1CC2CC1CN2c1ccc(Nc2ncc(C(F)(F)F)c(NCc3cccc4c3C(C)(C)C(=O)N4)n2)c(OC)c1 (stereo not drawn) [Example I-153]
48 | 13 | COc1cc(N2CC3CC2CN3C2COC2)ccc1Nc1ncc(C(F)(F)F)c(NCc2cccc3c2C(C)(C)C(=O)N3)n1 (stereo not drawn) [Example I-154]
49 | 1 | COc1cc(N2CCN(C3CCC3)CC2)ccc1Nc1ncc(C(F)(F)F)c(NCc2cccc3c2C(C)(C)C(=O)N3)n1 [Example I-155]
50 | 4 | COc1cc(N2CCN(C3COC3)CC2)ccc1Nc1ncc(C(F)(F)F)c(NCc2cccc3c2C(C)(C)C(=O)N3)n1 [Example I-156]
51 | 0.61 | CCN1CCN(c2ccc(Nc3ncc(C(F)(F)F)c(NCc4cccc5c4C(C)(C)C(=O)N5)n3)c(OC)c2)CC1 [Example I-157]
52 | 2 | COc1cc(N2CCN(C3CCN(C(C)=O)CC3)CC2)ccc1Nc1ncc(C(F)(F)F)c(NCc2cccc3c2C(C)(C)C(=O)N3)n1 [Example I-158]
53 | 0.41 | COc1cc(C2CCN(C(C)C)CC2)ccc1Nc1ncc(C(F)(F)F)c(NCc2cccc3c2C(C)(C)C(=O)N3)n1 [Example I-159]
54 | 0.96 | CN1CCC(c2ccc(Nc3ncc(Cl)c(NCc4cccc5c4C4(CC4)C(=O)N5)n3)cc2)CC1 [Example I-161]
55 | 2 | COc1cc(N2CCN(CC3CC3)CC2)ccc1Nc1ncc(C(F)(F)F)c(NCc2cccc3c2C(C)(C)C(=O)N3)n1 [Example I-162]
56 | 10 | CCOC(=O)N1CCC(N2CCN(c3ccc(Nc4ncc(C(F)(F)F)c(NCc5cccc6c5C(C)(C)C(=O)N6)n4)c(OC)c3)CC2)CC1 [Example I-163]
57 | 14 | COc1cc(N2CCN(Cc3ccco3)CC2)ccc1Nc1ncc(C(F)(F)F)c(NCc2cccc3c2C(C)(C)C(=O)N3)n1 [Example I-164]
